From US10294246B2, “Substituted boronic acids and boronate esters as immunoproteasome inhibitors” (MERCK PATENT GMBH, priority 2014, dated 2019)

Tests used:
[1] = target: human immunoproteasome (LMP7) (Homo sapiens (Human), UniProt P28062); test: Determination of LMP7 activity (fluorescence intensity assay, Suc-LLVY-AMC); format: biochemical; conditions: for Selectivity LMP7 vs Beta5: LMP7 versus Beta5; for IC50: purified human immunoproteasome 0.25 nM, Suc-LLVY-AMC 40 μM
In short: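 0.25 nM purified human immunoproteasome preincubated 20 min at 25 °C with serially diluted compounds in 50 mM Tris pH 7.4, 0.03% SDS, 1 mM EDTA, 1% DMSO. Reaction started with 40 μM Suc-LLVY-AMC, run 60 min at 37 °C. Fluorescence read at ex 350/em 450 nm.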

[2] = target: human constitutive proteasome (Beta5) (Homo sapiens (Human), UniProt P28074); test: Determination of Beta5 activity (fluorescence intensity assay, Suc-LLVY-AMC); format: biochemical; conditions: purified human constitutive proteasome 1.25 nM, Suc-LLVY-AMC 40 μM
In short: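 Purified constitutive proteasome (1.25 nM) was preincubated with compounds 20 min at 25 °C in 50 mM Tris pH 7.4, 0.03% SDS, 1 mM EDTA, 1% DMSO. Suc-LLVY-AMC (40 μM) was then added for 60 min at 37 °C. AMC fluorescence was read at ex 350/em 450 nm.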

Compound	Selectivity LMP7 vs Beta5 [1]	IC50 [1] [nM]	IC50 [2] [µM]
C[C@H](C(=O)N[C@@H](C[C@@H]1COc2ccccc21)B(O)O)c1ccccc1C(=O)N(C)C [Compound No. 107, [(1R)-2-[(3S)-2,3-dihydrobenzofuran-3-yl]-1-[[(2S)-2-[2-(dimethylcarbamoyl)phenyl]propanoyl]amino]ethyl]boronic acid]	++ (10 ≤ Selectivity < 50)	500 to 5000	> 5
COc1ccc(CC(=O)N[C@@H](Cc2cc3ccccc3o2)B(O)O)cc1 [Compound No. 108, [(1R)-2-(benzofuran-2-yl)-1-[[2-(4-methoxyphenyl)acetyl]-amino]ethyl]boronic acid]	+++++ (Selectivity ≥ 100)	< 50	0.5 to 5
CCO[C@@H](C(=O)N[C@@H](CC1COc2c(C)cccc21)B(O)O)c1ccccc1 (stereo partly drawn) [Compound No. 109, [(1R)-1-[[(2R)-2-ethoxy-2-phenyl-acetyl]amino]-2-(7-methyl-2,3-dihydrobenzofuran-3-yl)ethyl]boronic acid]	+++++ (Selectivity ≥ 100)	< 50	> 5
O=C(Cc1ccccc1)N[C@@H](Cc1cc2ccccc2o1)B(O)O [Compound No. 110, [(1R)-2-(benzofuran-2-yl)-1-[(2-phenylacetyl)amino]ethyl]boronic acid]	++++ (70 ≤ Selectivity < 100)	50 to 500	> 5
CCO[C@@H](C(=O)N[C@@H](CC1COc2ccccc21)B(O)O)c1ccccc1 (stereo partly drawn) [Compound No. 111, [(1R)-2-(2,3-dihydrobenzofuran-3-yl)-1-[[(2R)-2-ethoxy-2-phenyl-acetyl]amino]ethyl]boronic acid]	+++++ (Selectivity ≥ 100)	< 50	> 5
O=C(Cc1ccccn1)NC(Cc1coc2ccccc12)B(O)O (stereo not drawn) [Compound No. 112, [2-(benzofuran-3-yl)-1-[[2-(2-pyridyl)acetyl]amino]ethyl]boronic acid]	+++++ (Selectivity ≥ 100)	< 50	0.5 to 5
CCOc1ccc(CC(=O)N[C@@H](Cc2coc3c(Cl)cccc23)B(O)O)nc1 [Compound No. 113, [(1R)-2-(7-chlorobenzofuran-3-yl)-1-[[2-(5-ethoxy-2-pyridyl)acetyl]amino]ethyl]boronic acid]	+++++ (Selectivity ≥ 100)	< 50	0.5 to 5
COc1ccc(CC(=O)N[C@@H](C[C@@H]2COc3ccccc32)B(O)O)cc1 [Compound No. 114, [(1R)-2-[(3S)-2,3-dihydrobenzofuran-3-yl]-1-[[2-(4-methoxyphenyl)-acetyl]amino]ethyl]boronic acid]	+++++ (Selectivity ≥ 100)	< 50	0.5 to 5
COc1ccc(CC(=O)N[C@@H](C[C@H]2COc3ccccc32)B(O)O)cc1 [Compound No. 115, [(1R)-2-[(3R)-2,3-dihydrobenzofuran-3-yl]-1-[[2-(4-methoxyphenyl)-acetyl]amino]ethyl]boronic acid]	+++++ (Selectivity ≥ 100)	< 50	> 5
N#Cc1ccccc1CC(=O)N[C@@H](Cc1coc2c(Cl)cccc12)B(O)O [Compound No. 116, [(1R)-2-(7-chlorobenzofuran-3-yl)-1-[[2-(2-cyanophenyl)acetyl]amino]-ethyl]boronic acid]	+++++ (Selectivity ≥ 100)	< 50	0.5 to 5
COc1ccc(CC(=O)N[C@H](C[C@@H]2COc3ccccc32)B(O)O)cc1 [Compound No. 117, [(1S)-2-[(3S)-2,3-dihydrobenzofuran-3-yl]-1-[[2-(4-methoxyphenyl)-acetyl]amino]ethyl]boronic acid]	+++++ (Selectivity ≥ 100)	50 to 500	> 5
COc1ccc(CC(=O)N[C@H](C[C@H]2COc3ccccc32)B(O)O)cc1 [Compound No. 118, [(1S)-2-[(3R)-2,3-dihydrobenzofuran-3-yl]-1-[[2-(4-methoxyphenyl)-acetyl]amino]ethyl]boronic acid]	+++++ (Selectivity ≥ 100)	50 to 500	> 5
O=C(Cc1ncccc1C(=O)N1CCOCC1)N[C@@H](Cc1coc2ccccc12)B(O)O [Compound No. 119, [(1R)-2-(benzofuran-3-yl)-1-[[2-[3-(morpholine-4-carbonyl)-2-pyridyl]acetyl]amino]ethyl]boronic acid]	+++++ (Selectivity ≥ 100)	< 50	0.5 to 5
COc1ccc(CC(=O)N[C@@H](C[C@@H]2COc3c(OC)cccc32)B(O)O)cc1 [Compound No. 120, [(1R)-2-[(3S)-7-methoxy-2,3-dihydrobenzofuran-3-yl]-1-[[2-(4-methoxyphenyl)acetyl]amino]ethyl]boronic acid]	+++++ (Selectivity ≥ 100)	< 50	0.5 to 5
O=C(Cc1ccccc1)NC(Cc1coc2c(F)cccc12)B(O)O (stereo not drawn) [Compound No. 121, [2-(7-fluorobenzofuran-3-yl)-1-[(2-phenylacetyl)amino]ethyl]boronic acid]	+++++ (Selectivity ≥ 100)	< 50	0.5 to 5
N#Cc1cccc(CC(=O)N[C@@H](Cc2coc3ccccc23)B(O)O)c1 [Compound No. 123, [(1R)-2-(benzofuran-3-yl)-1-[[2-(3-cyanophenyl)acetyl]amino]ethyl]-boronic acid]	+++++ (Selectivity ≥ 100)	< 50	0.5 to 5
Cc1cccc2c1OC[C@H]2C[C@H](NC(=O)Cc1ccccc1)B(O)O [Compound No. 124, [(1R)-2-[(3S)-7-methyl-2,3-dihydrobenzofuran-3-yl]-1-[(2-phenylacetyl)amino]ethyl]boronic acid]	+++++ (Selectivity ≥ 100)	< 50	> 5
O=C(Cc1ccccc1)N[C@@H](Cc1coc2c(F)cccc12)B(O)O [Compound No. 125, [(1R)-2-(7-fluorobenzofuran-3-yl)-1-[(2-phenylacetyl)amino]ethyl]-boronic acid]	+++++ (Selectivity ≥ 100)	< 50	0.05 to 0.5
Cc1c(Cl)ccc2c(C[C@H](NC(=O)Cc3ccccc3)B(O)O)coc12 [Compound No. 126, [(1R)-2-(6-chloro-7-methyl-benzofuran-3-yl)-1-[(2-phenylacetyl)-amino]ethyl]boronic acid]	+++++ (Selectivity ≥ 100)	< 50	0.5 to 5
Cc1cccc2c1OC[C@@H]2C[C@H](NC(=O)Cc1ccccc1)B(O)O [Compound No. 127, [(1R)-2-[(3R)-7-methyl-2,3-dihydrobenzofuran-3-yl]-1-[(2-phenylacetyl)amino]ethyl]boronic acid]	++ (10 ≤ Selectivity < 50)	500 to 5000	> 5
Cc1ccc(C)c2c(C[C@H](NC(=O)Cc3ccccc3)B(O)O)coc12 [Compound No. 128, [(1R)-2-(4,7-dimethylbenzofuran-3-yl)-1-[(2-phenylacetyl)-amino]ethyl]boronic acid]	+++++ (Selectivity ≥ 100)	< 50	> 5
COc1ccc(CC(=O)N[C@@H](Cc2coc3c(C)ccc(C)c23)B(O)O)cc1 [Compound No. 129, [(1R)-2-(4,7-dimethylbenzofuran-3-yl)-1-[[2-(4-methoxyphenyl)-acetyl]amino]ethyl]boronic acid]	+++++ (Selectivity ≥ 100)	< 50	0.5 to 5
Cc1cccc2c1OC[C@H]2C[C@H](NC(=O)Cc1ccccc1C#N)B(O)O [Compound No. 130, [(1R)-1-[[2-(2-cyanophenyl)acetyl]amino]-2-[(3S)-7-methyl-2,3-dihydrobenzofuran-3-yl]ethyl]boronic acid]	+++++ (Selectivity ≥ 100)	< 50	> 5
CCOc1ccc(CC(=O)N[C@@H](C[C@@H]2COc3ccccc32)B(O)O)nc1 [Compound No. 131, [(1R)-2-[(3S)-2,3-dihydrobenzofuran-3-yl]-1-[[2-(5-ethoxy-2-pyridyl)acetyl]amino]ethyl]boronic acid]	+++++ (Selectivity ≥ 100)	< 50	0.5 to 5
O=C(Cc1ccccc1)N[C@@H](C[C@@H]1COc2c(Cl)cccc21)B(O)O [Compound No. 132, [(1R)-2-[(3S)-7-chloro-2,3-dihydrobenzofuran-3-yl]-1-[(2-phenylacetyl)amino]ethyl]boronic acid]	+++++ (Selectivity ≥ 100)	< 50	0.5 to 5
O=C(Cc1ccccc1)N[C@@H](C[C@H]1COc2c(Cl)cccc21)B(O)O [Compound No. 133, [(1R)-2-[(3R)-7-chloro-2,3-dihydrobenzofuran-3-yl]-1-[(2-phenylacetyl)amino]ethyl]boronic acid]	++ (10 ≤ Selectivity < 50)	500 to 5000	> 5
N#Cc1ccccc1CC(=O)N[C@@H](C[C@@H]1COc2c(Cl)cccc21)B(O)O [Compound No. 134, [(1R)-2-[(3S)-7-chloro-2,3-dihydrobenzofuran-3-yl]-1-[[2-(2-cyanophenyl)acetyl]amino]ethyl]boronic acid]	+++++ (Selectivity ≥ 100)	< 50	0.5 to 5
